Test results reported in article PMC11532403 (Signal Transduction and Targeted Therapy, 2024).
pIC50: −log10 of the molar value. Values joined by “and” are separate entries in the source; they are usually repeats but may differ in a detail not shown here. Identical values can stand only once.

Columns and labels:
respiratory system = assay: Respiratory safety pharmacology; format: in vivo, SD rats; details: single oral, males 15-40, females 30-80 mg/kg
Experimental: All rats were evaluated by cage-side observation, detailed clinical observation, body weight and respiratory parameters (tidal volume, minute tidal volume and respiratory rate).

[1] = tested on: patients with advanced RET-altered solid tumors; assay: Phase 1 trial: treatment-related adverse events (CTCAE v5.0), DLT, MTD;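 further: Open-label single-arm first-in-human phase 1 study at six Chinese sites with 3 + 3 dose escalation and expansion, adverse events given descriptively as patient counts and percentages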
Experimental: This single-arm, open-label, first-in-human, dose-escalation and dose-expansion phase 1 study was conducted across six sites in China (NCT05278364). […] Dose escalation followed a 3 + 3 design, incorporating accelerated titration[41] for the first two dose levels and a modified Fibonacci dose escalation.[42]
The primary endpoints for this study were to determine the MTD, DLT, RP2D and safety. […] All responses required a confirmation of radiologic assessment at least 4 weeks after the first assessment.
The Pharmacokinetic Analysis Set (PKAS) included all patients with at least one evaluable PK sample (n = 43). Descriptive statistics were used for baseline data, summarizing continuous data with mean, standard deviation, median, minimum, and maximum, and categorical data with frequency and percentage. Safety analysis was descriptive, including adverse events summarized by frequency and severity. PK parameter analysis was performed using Phoenix WinNonlin version 8.0 (Certara L.P. [Pharsight], St. Louis, MO, USA), and results were summarized using geometric mean and coefficient of variation. CIs for response rates were calculated using the Clopper-Pearson method. […] All analysis were performed with SAS statistical software, version 9.2 (SAS Institute).

[2] = tested on: RET phosphorylation in BaF3-CCDC6-RET^WT cells; assay: RET signaling pathway phosphorylation in cells; format: cell-based
central nervous system = assay: Central nervous system safety pharmacology; format: in vivo, SD rats; details: single oral, males 15-40, females 30-80 mg/kg
Experimental: All rats were evaluated for cage-side observation, detailed clinical observation, body weight and neurofunctional behavioural indices including in-cage observation, restraint observation, field observation, stimulus reflex observation and body temperature.

CYP2C9 = biological target: T1, CYP2C9 (Homo sapiens, UniProt P11712); assay: CYP inhibition in human liver microsomes; format: in vitro ADME; details: 0.5-25 μM
T1 construct: substrates of different CYP450 enzymes in mixed human liver microsomes; from tissue; host or cells: mixed human liver microsomes
T1 sequence (P11712 whole entry): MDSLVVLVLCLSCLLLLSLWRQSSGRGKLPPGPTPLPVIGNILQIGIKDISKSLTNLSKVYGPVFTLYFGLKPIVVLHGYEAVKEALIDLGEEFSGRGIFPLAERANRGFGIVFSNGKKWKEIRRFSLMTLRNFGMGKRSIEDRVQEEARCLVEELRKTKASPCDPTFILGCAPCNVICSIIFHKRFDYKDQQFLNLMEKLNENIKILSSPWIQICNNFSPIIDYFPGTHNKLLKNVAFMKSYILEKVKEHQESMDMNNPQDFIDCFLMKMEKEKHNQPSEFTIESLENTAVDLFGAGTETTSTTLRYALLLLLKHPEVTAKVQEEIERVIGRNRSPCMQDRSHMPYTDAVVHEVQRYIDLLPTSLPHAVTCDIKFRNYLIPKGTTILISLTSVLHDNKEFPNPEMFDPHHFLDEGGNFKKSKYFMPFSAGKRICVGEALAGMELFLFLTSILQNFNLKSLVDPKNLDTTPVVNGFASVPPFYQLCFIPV

[3] = Excretion in rats (feces, urine, bile); format: in vivo
Experimental: The total fecal and urinary excretion of prodrug and metabolite was 62.8% of the administered dose. The amount of prodrug and metabolite in bile from 0 to 48 h in bile duct-intubated rats was 5.22% of the administered dose, of which 0.656% was prodrug and 4.57% was metabolite.

[4] = Plasma protein binding, rapid equilibrium dialysis; format: in vitro ADME; details: rat, read-out: Plasma protein binding rate (converted)

COc1ccc(CN2C3CC2CN(c2ccc(-c4cc(N5CC(C)(O)C5)cn5ncc(C#N)c45)cn2)C3)cn1 [SY-5007, 6-(3-hydroxy-3-methylazetidin-1-yl)-4-(6-(6-((6-methoxypyridin-3-yl)methyl)-3,6-diazabicyclo[3.1.1]heptan-3-yl)pyridin-3-yl)pyrazolo[1,5-a]pyridine-3-carbonitrile]
Respiratory effects (respiratory system): nor did it show any effects on the respiratory parameters | Dose-limiting toxicity (DLT) ([1]; 20 mg QD to 200 mg BID): No dose-limiting toxicity (DLT) was observed | Albuminuria ([1]; All Grade, Total (n = 122)): 45 (36.9) n (%) | Anemia ([1]; All Grade, Total (n = 122)): 27 (22.1) n (%) | Any TRAE ([1]; All Grade, Total (n = 122)): 96.7 n (%) and 118 (96.7) n (%) | Conjugated Hyperbilirubinemia ([1]; All Grade, Total (n = 122)): 23 (18.9) n (%) | Diarrhea ([1]; All Grade, Total (n = 122)): 54.1 n (%) and 66 (54.1) n (%) | Dry mouth ([1]; All Grade, Total (n = 122)): 40 (32.8) n (%) | Facial edema ([1]; All Grade, Total (n = 122)): 35 (28.7) n (%) | Hyperbilirubinemia ([1]; All Grade, Total (n = 122)): 51 (41.8) n (%) | Hyperglycemia ([1]; All Grade, Total (n = 122)): 22 (18.0) n (%) | Hyperphosphatemia ([1]; All Grade, Total (n = 122)): 42 (34.4) n (%) | Hypertension ([1]; All Grade, Total (n = 122)): 50 (41.0) n (%) | Hypertriglyceridemia ([1]; All Grade, Total (n = 122)): 55 (45.1) n (%) | Hyperuricemia ([1]; All Grade, Total (n = 122)): 41 (33.6) n (%) | Hypoalbuminemia ([1]; All Grade, Total (n = 122)): 33 (27.0) n (%) | Hypocalcemia ([1]; All Grade, Total (n = 122)): 34 (27.9) n (%) | Hyponatremia ([1]; All Grade, Total (n = 122)): 23 (18.9) n (%) | Hypopotassemia ([1]; All Grade, Total (n = 122)): 19 (15.6) n (%) | Hypothyroidism ([1]; All Grade, Total (n = 122)): 38 (31.1) n (%) | Increased alanine aminotransferase ([1]; All Grade, Total (n = 122)): 56.6 n (%) and 69 (56.6) n (%) | Increased aspartate aminotransferase ([1]; All Grade, Total (n = 122)): 69.7 n (%) and 85 (69.7) n (%) | Increased blood alkaline phosphatase ([1]; All Grade, Total (n = 122)): 43 (35.2) n (%) | Increased blood creatine ([1]; All Grade, Total (n = 122)): 45 (36.9) n (%) | Increased blood creatine phosphokinase ([1]; All Grade, Total (n = 122)): 40 (32.8) n (%) | Increased blood creatine phosphokinase MB ([1]; All Grade, Total (n = 122)): 54 (44.3) n (%) | Increased blood lactate dehydrogenase ([1]; All Grade, Total (n = 122)): 51 (41.8) n (%) | Increased γ-Glutamyl transferase ([1]; All Grade, Total (n = 122)): 28 (23.0) n (%) | Leukopenia ([1]; All Grade, Total (n = 122)): 56 (45.9) n (%) | Lymphopenia ([1]; All Grade, Total (n = 122)): 30 (24.6) n (%) | Neutropenia ([1]; All Grade, Total (n = 122)): 54.1 n (%) and 66 (54.1) n (%) | Palmoplantar erythema syndrome ([1]; All Grade, Total (n = 122)): 23 (18.9) n (%) | Peripheral edema ([1]; All Grade, Total (n = 122)): 23 (18.9) n (%) | Thrombocytopenia ([1]; All Grade, Total (n = 122)): 50 (41.0) n (%) | Weakness ([1]; All Grade, Total (n = 122)): 20 (16.4) n (%) | Weight loss ([1]; All Grade, Total (n = 122)): 22 (18.0) n (%) | Xeromycteria ([1]; All Grade, Total (n = 122)): 21 (17.2) n (%) | Conjugated Hyperbilirubinemia ([1]; Grade ⩾ 3, dose group): 0 (0.0) n (%) | Dry mouth ([1]; Grade ⩾ 3, dose group): 0 (0.0) n (%) | Facial edema ([1]; Grade ⩾ 3, dose group): 0 (0.0) n (%) | Hyperglycemia ([1]; Grade ⩾ 3, dose group): 0 (0.0) n (%) | Hyperphosphatemia ([1]; Grade ⩾ 3, dose group): 0 (0.0) n (%) | Hyperuricemia ([1]; Grade ⩾ 3, dose group): 0 (0.0) n (%) | Hypoalbuminemia ([1]; Grade ⩾ 3, dose group): 0 (0.0) n (%) | Hypothyroidism ([1]; Grade ⩾ 3, dose group): 0 (0.0) n (%) | Increased blood alkaline phosphatase ([1]; Grade ⩾ 3, dose group): 0 (0.0) n (%) | Increased blood creatine ([1]; Grade ⩾ 3, dose group): 0 (0.0) n (%) | Increased blood lactate dehydrogenase ([1]; Grade ⩾ 3, dose group): 0 (0.0) n (%) | Peripheral edema ([1]; Grade ⩾ 3, dose group): 0 (0.0) n (%) | Xeromycteria ([1]; Grade ⩾ 3, dose group): 0 (0.0) n (%) | Dose discontinuation due to TRAE ([1]; n = 122): 2 (1.6%) n (%) | Dose interruption due to diarrhea ([1]; n = 122): 10.7% | Dose interruption due to hypertension ([1]; n = 122): 12.3% | Dose reduction due to hypertension ([1]; n = 122): 5.7% | TRAE-induced dose interruption ([1]; n = 122): 56 (45.9%) n (%) | TRAE-induced dose reduction ([1]; n = 122): 29 (23.8%) n (%) | Treatment-related deaths ([1]; n = 122): no treatment-related deaths | Treatment-related serious adverse events (TRSAEs) ([1]; n = 122): 13 (10.7%) n (%) | Maximum tolerated dose (MTD) ([1]; up to 200 mg BID): not reached | Concentration at which effect reaches saturation [2]: 10 nM | Concentration significantly inhibiting RET phosphorylation [2]: 1 nM | CNS effects (central nervous system): did not affect any of the assessed neurofunctional-behavioural parameters | pIC50 (CYP2C9): 5.18 | Fecal excretion, prodrug (parent) ([3]; 20 mg/kg gavage): 55.4% | Urinary excretion, prodrug (parent) ([3]; 20 mg/kg gavage): 0.801% | Bile excretion, prodrug (parent) ([3]; bile duct-intubated rats): 0.656% | fraction unbound [4]: 0.034
